Reference: patent US20240293553A1, “P-SELECTIN INHIBITORS AND USES THEREOF” (Beth Israel Deaconess Medical Center, Inc., priority 2021, published 2024)
Several values for one entry are separate records, joined by “and”; a condition that tells them apart may be missing. Equal entries are not always repeated. Where two headings read alike, the source gives them in different places. Square brackets hold non-standard residues; d marks the D form. Ends that are not written are not given here. Peptide text beside a SMILES is read from it. * marks the point of attachment. X1 = CC(=O)N[C@H]1[C@H](OCCn2cc(C*)nn2)O[C@H](CO)[C@@H](O[C@@H]2O[C@H](CO)[C@H](O)[C@H](O[C@]3(C(=O)O)C[C@H](O)[C@@H](NC(C)=O)[C@H]([C@H](O)[C@H](O)CO)O3)[C@H]2O)[C@@H]1O[C@@H]1O[C@@H](C)[C@@H](O)[C@@H](O)[C@@H]1O; Phe(4-CH2SO3H) = N[C@@H](Cc1ccc(CS(=O)(=O)O)cc1)C(=O)O

What was measured:
human P-selectin [1] = experiment: Glycopeptide microarray binding assay, P-selectin; conditions: human P-selectin 5 μg/mL; compounds at 50 μM
Description: (§1) For a multi-panel experiment on a single slide, the array layout was designed using Piezoarray software according to the dimension of a standard 14-chamber adaptor. The adaptor was applied on the slide to separate a single slide to 14 chambers sealed from each other during the experiment. All glycopeptides and control samples were printed on an NHS-activated glass slide in phosphate buffer (300 mM sodium phosphates, pH 8.5). The average spot volume was within 10% variation (intra-tip) of 0.33 nL. The average spot size was 100 μm. […] These AEAB derivatives and control biotin-NHNH2, all at 50 μM concentration, were printed on the microarray as controls and reference standards. After printing, the slide was placed in a high moisture chamber at 50° C. and incubated for 1 h. The slide was subsequently washed and blocked with 50 mM ethanolamine in 0.1 M Tris buffer (pH 8.0) for 1 h, dried by centrifugation, and stored desiccated at −20° C. prior to use. […] The scanned images were analyzed using ScanArray Express software.
(§2) The binding affinity of G4 towards P-selectin was initially screened using microarray technology. G4 along with 11 additional structural variants and synthetic intermediates, as well as […] glycan standards (sLe^x, NA2, NA2,3, NA2,6, asialobiantennary, asialotetra-saccharide) were printed on an NHS-activated glass slide (FIGS. 7A-7C). The slide was then incubated with a recombinant immunoglobulin (Ig) chimera of P-sel (5 μg mL^−1) or monoclonal antibodies, PL1, specific to the N-terminal PSGL-1 peptide sequence, CHO131, specific to the Core 2 O-glycan terminated with sLe^X, or HECA-452, specific to sLe^x. The array was then washed and incubated with Alexa-488-labelled anti-human IgG antibody (5 μg/mL). […] Of note, the PL1 epitope spans residues 49-62, which includes the key sequence -L-P-E-T-E-P- (84). Thus, modification of the key T residue within the PL1 epitope alters PL1 binding, but not P-selectin binding. Binding of glycopeptide mimics was Ca2^+ dependent and inhibited by EDTA.

[2] = system: platelet-leukocyte aggregates; experiment: Platelet-leukocyte aggregation in mouse whole blood (PAR4-activating peptide), flow cytometry; assay type: cell-based; conditions: 120 μM
Description: (§3) Platelet-leukocyte aggregates were quantified in whole blood using dual-label flow cytometry (CytoFlex LX, Beckman Coulter). […] Platelet-leukocyte aggregates were quantified by two-color flow cytometry by incubating human samples with anti-CD45-APC (BD Biosciences) and anti-CD42a-FITC (BD Biosciences) and mouse samples with anti-CD45-eFluor506 (Invitrogen), anti-CD11b-APC (BD Biosciences), anti-Ly-6G-PE (BD Biosciences), and anti-CD41-FITC (BD Biosciences). […] Inhibition experiments were conducted in triplicate.
(§4) PSGL-1/P-selectin binding are responsible for the generation of platelet-leukocyte aggregates, which leads to the release of neutrophil extracellular traps and other procoagulant factors, as well as the infiltration of leukocytes (86, 87).

[3] = system: PL1, a monoclonal antibody specific to the N-terminal PSGL-1 peptide sequence; experiment: Glycopeptide microarray binding assay, PL1
Description: as §1
(§5) The binding affinity of G4 towards P-selectin was initially screened using microarray technology. G4 along with 11 additional structural variants and synthetic intermediates, as well as five glycan standards (sLe^x, NA2, NA2,3, NA2,6, asialobiantennary, asialotetra-saccharide) were printed on an NHS-activated glass slide (FIGS. 7A-7C). […]

[4] = target: T1, murine P-selectin-Fc chimera (Mus musculus, UniProt Q01102); experiment: Flow cytometry inhibition of P-selectin-Fc chimera binding to murine leukocytes; assay type: cell-based; conditions: P-selectin-Fc chimera 3 μg/mL
T1 construct: purchased R&D Systems
Description: Flow cytometry was used to quantify binding inhibition of P-selectin-Fc chimeras to human and murine leukocytes. Heparinized whole mouse blood was collected via cardiac puncture and human blood from healthy adult volunteers was collected in citrate. Leukocytes were isolated by centrifugation at 800 g for 10 min at room temperature, platelets removed by centrifugation at 120 g for 10 min at room temperature, and red blood cells lysed using red blood cell (RBC) lysis buffer (eBiosciences). […] The interaction of P-selectin with human and murine monocytes and neutrophils was analyzed by flow cytometry (CytoFlex LX, Beckman Coulter) and quantified as percent inhibition using FlowJo. Inhibition experiments were conducted in triplicate.
Binding of P-selectin was detected with phycoerythrin (PE)-conjugated anti-Fc antibody and quantified as mean fluorescent intensity and plotted as percent inhibition.

[5] = system: CHO131, a monoclonal antibody specific to the Core 2 O-glycan terminated sLe^x; experiment: Glycopeptide microarray binding assay, CHO131
Description: as §1, §5

[6] = system: platelet-leukocyte aggregates; experiment: Platelet-leukocyte aggregation in human whole blood (PAR1-activating peptide), flow cytometry; assay type: cell-based; conditions: 120 μM
Description: as §3, §4

in vivo = conditions: C57BL/6, mouse, iv, 8 umol/kg
Description: The supernatant (80 μL) was dried in vacuo, reconstituted in nanopure water (32 μL), and an aliquot (2 μL) was injected for pre-concentration at a flow rate of 5 μL/min using an UltiMate 3000 RSLCnano ultra-high-performance liquid chromatography (UHPLC) system (Dionex) coupled to an Orbitrap Fusion Lumos mass spectrometer (Thermo Fisher Scientific). […] Following in-source fragmentation (ISF), m/z 1121.09 (z=3) was used as the quantifying peptide. Peak areas from the extracted chromatograms were used for quantification. […] Compound half-life was determined using non-compartmental analysis.

[7] = system: HECA-452, a monoclonal antibody specific to sLe^x; experiment: Glycopeptide microarray binding assay, HECA-452
Description: as §1, §2

P-selectin [8] = target: T2, P-selectin (Homo sapiens, UniProt P16109); conditions: literature values; cited from earlier work
T2 sequence (P16109 42-830): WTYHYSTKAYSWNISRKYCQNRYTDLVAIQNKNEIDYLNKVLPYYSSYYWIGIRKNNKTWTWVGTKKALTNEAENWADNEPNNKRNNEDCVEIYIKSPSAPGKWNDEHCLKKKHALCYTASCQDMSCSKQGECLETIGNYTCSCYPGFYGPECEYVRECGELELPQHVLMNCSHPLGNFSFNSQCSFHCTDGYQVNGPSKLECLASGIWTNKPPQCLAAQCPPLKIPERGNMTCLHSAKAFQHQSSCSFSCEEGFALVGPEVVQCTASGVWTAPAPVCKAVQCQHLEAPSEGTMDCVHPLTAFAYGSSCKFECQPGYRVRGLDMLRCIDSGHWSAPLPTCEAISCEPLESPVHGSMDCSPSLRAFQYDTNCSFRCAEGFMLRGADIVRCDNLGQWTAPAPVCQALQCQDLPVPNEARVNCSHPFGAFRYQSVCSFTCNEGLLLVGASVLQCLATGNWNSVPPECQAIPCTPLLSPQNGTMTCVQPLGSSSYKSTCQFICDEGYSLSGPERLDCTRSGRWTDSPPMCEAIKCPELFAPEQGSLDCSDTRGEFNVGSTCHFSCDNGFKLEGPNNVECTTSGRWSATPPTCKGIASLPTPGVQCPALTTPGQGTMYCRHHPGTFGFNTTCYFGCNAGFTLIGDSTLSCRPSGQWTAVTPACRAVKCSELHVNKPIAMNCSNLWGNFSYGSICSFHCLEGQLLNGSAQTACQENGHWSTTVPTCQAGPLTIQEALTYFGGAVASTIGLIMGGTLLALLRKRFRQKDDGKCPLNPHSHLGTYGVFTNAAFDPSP

human P-selectin [9] = experiment: Biacore surface plasmon resonance binding assay (biotinylated ligand captured, P-selectin-Ig flowed); conditions: human P-selectin-Ig 0.4-100 nM
Description: Biotinylated G4 was first captured quantitatively on a streptavidin-coated sensor chip (GE Healthcare). Different amounts of P-selectin-Ig chimera (P-Sel-Ig) were incubated in the wells (0.4-100 nM) and bound P-selectin detected using fluorescently labelled anti-human IgG. PL1 and CHO131 were used to confirm the immobilization step and to compare the relative amount of glycopeptide on the chip. Bound monoclonal antibodies and P-selectin were removed from the sensor chip by injecting 10 mM glycine-HCl, pH 2.0 and 50 mM EDTA, respectively, at 20 μL/min for 30 s. The kinetic parameters were obtained by plotting the curves using a 1:1 binding model provided by the Biacore evaluation software.

P-selectin [10] = target: T2, P-selectin; conditions: reported values; cited from earlier work
venous thrombus = experiment: Murine model of non-occlusive venous thrombosis (electrolytic injury of the inferior vena cava); assay type: in vivo, C57BL/6 mice; conditions: 48 h after injury; glycopeptide 8 μmol/kg IV, LMWH (enoxaparin) 6 mg/kg SC
Description: Venous side branches were ligated or cauterized, while posterior branches were left patent. A 25-gauge stainless steel needle, attached to a silver-coated copper wire was inserted into the exposed caudal vena cava and positioned against the anterior wall (anode). […] Subsequently, the needle was removed and a cotton swab held in gentle contact with the puncture site to prevent bleeding.

T1 sequence (Q01102 with tags, fused parts or gaps limits assumed): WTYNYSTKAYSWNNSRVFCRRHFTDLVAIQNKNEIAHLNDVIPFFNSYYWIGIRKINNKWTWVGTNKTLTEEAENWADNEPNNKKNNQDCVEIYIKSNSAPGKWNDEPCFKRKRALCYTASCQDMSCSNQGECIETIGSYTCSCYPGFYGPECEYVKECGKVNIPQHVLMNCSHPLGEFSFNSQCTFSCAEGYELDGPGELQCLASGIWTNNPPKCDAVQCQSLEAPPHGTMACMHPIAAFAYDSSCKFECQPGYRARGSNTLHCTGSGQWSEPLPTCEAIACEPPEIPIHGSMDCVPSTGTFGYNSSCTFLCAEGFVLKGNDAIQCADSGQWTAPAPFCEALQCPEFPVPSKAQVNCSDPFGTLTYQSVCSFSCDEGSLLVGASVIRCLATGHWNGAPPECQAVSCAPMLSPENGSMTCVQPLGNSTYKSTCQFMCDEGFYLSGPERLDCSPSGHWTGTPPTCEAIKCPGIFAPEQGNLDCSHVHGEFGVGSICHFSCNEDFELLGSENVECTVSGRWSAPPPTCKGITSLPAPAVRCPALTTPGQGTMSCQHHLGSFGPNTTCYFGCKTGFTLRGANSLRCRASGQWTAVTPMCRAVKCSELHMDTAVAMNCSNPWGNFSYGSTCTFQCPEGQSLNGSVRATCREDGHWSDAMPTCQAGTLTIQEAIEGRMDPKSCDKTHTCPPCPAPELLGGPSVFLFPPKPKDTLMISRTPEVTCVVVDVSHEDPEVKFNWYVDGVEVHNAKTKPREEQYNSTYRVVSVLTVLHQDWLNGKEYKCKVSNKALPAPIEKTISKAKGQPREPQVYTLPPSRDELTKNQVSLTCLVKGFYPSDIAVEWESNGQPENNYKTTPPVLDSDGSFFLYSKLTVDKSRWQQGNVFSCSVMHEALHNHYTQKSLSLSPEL

## CC(=O)N[C@H]1[C@H](OCCn2cc(CO[C@H](C)[C@H](NC(=O)[C@H](CCC(=O)O)NC(=O)[C@@H]3CCCN3C(=O)[C@H](CC(C)C)NC(=O)[C@H](Cc3ccccc3)NC(=O)[C@H](CC(=O)O)NC(=O)[C@H](Cc3ccc(CS(=O)(=O)O)cc3)NC(=O)[C@H](CC(=O)O)NC(=O)[C@H](CC(C)C)NC(=O)[C@H](Cc3ccc(CS(=O)(=O)O)cc3)NC(=O)[C@H](CCC(=O)O)NC(=O)[C@H](Cc3ccc(CS(=O)(=O)O)cc3)NC(=O)[C@H](CCC(=O)O)NC(=O)[C@H](CCCCN)NC(C)=O)C(=O)N[C@@H](CCC(=O)O)C(=O)N3CCC[C@H]3C(=O)N[C@@H](CC(C)C)C(=O)O)nn2)O[C@H](CO)[C@@H](O[C@@H]2O[C@H](CO)[C@H](O)[C@H](O[C@]3(C(=O)O)C[C@H](O)[C@@H](NC(C)=O)[C@H]([C@H](O)[C@H](O)CO)O3)[C@H]2O)[C@@H]1O[C@@H]1O[C@@H](C)[C@@H](O)[C@@H](O)[C@@H]1O [G4, KEF*EF*LDF*DFLPET(Neu5Acα2-3Galβ1-4(Fucal-3)GlcNAc)EPL] (Ac-KE[Phe(4-CH2SO3H)]E[Phe(4-CH2SO3H)]LD[Phe(4-CH2SO3H)]DFLPET(X1)EPL-OH)
Human P-selectin [1]
  Binding to P-selectin on microarray: strongly bound
[2]
  Inhibition of murine platelet-monocyte aggregates: 41%
  Inhibition of murine platelet-neutrophil aggregates: 38%
[3]
  Binding of PL1 on microarray: neither PL1 or CHO131 bound
[4]; murine monocytes, read-out: IC50, P-selectin binding to murine monocytes
  IC50: 10 µM
[4]; murine neutrophils, read-out: IC50, P-selectin binding to murine neutrophils
  IC50: 10 µM
[5]
  Binding of CHO131 on microarray: neither PL1 or CHO131 bound
[6]
  Inhibition of human platelet-monocyte aggregates: 33%
  Inhibition of human platelet-neutrophil aggregates: 28%
In vivo
  half-life: 13.2 ± 5.04 min
[7]
  Binding of HECA-452 on microarray: strongly bound

## C[C@@H]1O[C@@H](O[C@@H]2[C@@H](NC(=O)c3cc(=O)[nH]c(=O)[nH]3)C[C@@H](C(=O)NCCNC(=O)COCCOCC(=O)Nc3cc(S(=O)(=O)O)cc4cc(S(=O)(=O)O)cc(S(=O)(=O)O)c34)C[C@H]2O[C@@H]2O[C@H](CO)[C@H](O)[C@H](O[C@@H](CC3CCCCC3)C(=O)O)[C@H]2OC(=O)c2ccccc2)[C@@H](O)[C@H](O)[C@@H]1O [GMI-1070]
P-selectin [8]
  IC50: 423 µM

## O=C(O)c1c(O)c(C2(c3ccc(Cl)cc3)CC2)nc2c(C(F)(F)F)cccc12 [PSI-421, 2-[1-(4-chlorophenyl)cyclopropyl]-3-hydroxy-8-(trifluoromethyl)quinoline-4-carboxylic acid]
P-selectin [8]
  IC50: 225 µM

## EY*EY*LDY*DFLPET(Neu5Acα2-3Galβ1-4(Fucal-3)GlcNAcβ1-6Galβ1-3GalNAcα)EPPEM (EYEYLDYDFLPET(Neu5Acα2‑3Galβ1‑4(Fucal-3)GlcNAcβ1‑6Galβ1‑3GalNAcα)EPPEM; not fully specified (residues 2, 4, 7)) [GSP-6]
Human P-selectin [1]
  Binding to P-selectin on microarray: strongly bound
[7]
  Binding of HECA-452 on microarray: strongly bound

## KEF*EF*LDF*DFLPET(Neu5Acα2-3Galβ1-4(Fucal-3)GlcNAcβ1-6(Galβ1-3)GalNAcα)EPL (KEFEFLDFDFLPET(Neu5Acα2‑3Galβ1‑4(Fucal-3)GlcNAcβ1‑6(Galβ1-3)GalNAcα)EPL; not fully specified (residues 3, 5, 8)) [GSnP-6, previously reported glycosulfonopeptide P-selectin antagonist, reference compound]
Human P-selectin [1]
  Binding to P-selectin on microarray: strongly bound
Human P-selectin [9]
  Kd: 0.027 µM
[7]
  Binding of HECA-452 on microarray: strongly bound
P-selectin [10]
  Kd: 0.022 µM and 0.027 µM

## enoxaparin
Venous thrombus
  venous thrombus formation / thrombus weight versus saline vehicle: significant reduction
